Key:
hyperlipidemia mice = experiment: Lipid lowering effects in Tyloxapol-induced hyperlipidemia mice; assay type: in vivo, Kunming strain; conditions: plasma; 10 mg/kg oral once a day for four days; Tyloxapol 400 mg/kg i.p.; blood 24 hours after Tyloxapol
Method: Test method: Male and […] mice, Kunming strain, 35 each, weight 18-22 grams, were used. Food and water were available ad libitum. The animals were randomized into 7 groups (n=10). Groups of animals were administered orally, via a stomach tube, vehicle (distilled water, two groups), R-bambuterol hydrochloride (10 mg/kg and 5 mg/kg), racemic bambuterol hydrochloride (10 mg/kg and 5 mg/kg) and simvastatin (10 mg/kg) once a day for four days. With the exception of one vehicle- treated group (as control), Tyloxapol (400 mg/kg, Sigma Chemical Co.) was injected into the peritoneal cavity of the mice of all groups immediately after the last treatment on the fourth day in order to induce hyperlipidemia. All the animals were fasted overnight prior to the injection of Tyloxapol. Blood samples were collected by cardiac puncture 24 hours after the injection of Tyloxapol. The blood samples were processed to plasma, and concentration of triglycerides (TG), cholesterol (CHO), high density lipoprotein (HDL), low density lipoprotein (LDL) and very low density lipoprotein (VLDL) were measured with an auto-blood analyzer (Olympic, Japan).

Rats (Sprague Dawley) = experiment: Cardiovascular effects in anesthetized rats (HR, MBP, Max dp/dt); assay type: in vivo; conditions: 30 mg/kg intravenously
Source text: Test method: Rats (Sprague Dawley, 250-300g) were randomized into two groups (n=6, equal sexes). After anesthesia, plastic tubing was introduced into a carotid artery of each animal and connected to pressure transducers to record mean artery pressure (MBP) and heart rate (HR). Another tube was introduced into the left ventricular chamber via the another carotid artery and connected to a pressure transducer. Left ventricular systolic pressure (LVSP) and the first order of differential of LVSP (dp/dt) as an index for inotropic effects were recorded. R-Bambuterol and racemic bambuterol hydrochloride were dissolved in saline and administrated intravenously at 30 mg/kg to each animal. The HR, MBP and Max dp/dt were measured before treatment (control) and after the treatments when the maximum response occurred, and 20 min after treatment as indication of recovery.

[1] = bronchospasmolytic activity upon oral administration; cited from earlier work
[2] = 20 min after treatment (recovery)
[3] = change from pre-treatment control at maximum response

CN(C)C(=O)Oc1cc(OC(=O)N(C)C)cc(C(O)CNC(C)(C)C)c1 (racemic) [bambuterol]
CHO lipid levels (hyperlipidemia mice): 125.2 ± 19.8 mg/dL | HDL lipid levels (hyperlipidemia mice): 50 ± 17 mg/dL | LDL lipid levels (hyperlipidemia mice): 30 ± 6 mg/dL | TG lipid levels (hyperlipidemia mice): 148 ± 45 mg/dL | VLDL lipid levels (hyperlipidemia mice): 44.2 ± 14.4 mg/dL | HR, 20min after Δ (Rats (Sprague Dawley); [2]): 40±9 Beat/min | MBP, 20min after Δ (Rats (Sprague Dawley); [2]): 1.1±0.4 Kpa | MBP, 20min after Δ, % of control (Rats (Sprague Dawley); [2]): 8.3% | Maxdp/dt, 20min after Δ (Rats (Sprague Dawley); [2]): 13±3.8 Kpa/sec | Maxdp/dt, 20min after Δ, % of control (Rats (Sprague Dawley); [2]): 4.8% | HR, 20min after Δ, % of Control (Rats (Sprague Dawley); 20 min after treatment (recovery), listed as Rac-Bambuterol): 9.5% | HR, 20min after Δ, % of Control (Rats (Sprague Dawley); 20 min after treatment (recovery), listed as racemic bambuterol hydrochloride): 9.5% | HR, Treatment Δ, % of Control (Rats (Sprague Dawley); at maximum response): 20.6% | MBP, Treatment Δ, % of control (Rats (Sprague Dawley); at maximum response): 31.6% | Maxdp/dt, Treatment Δ, % of control (Rats (Sprague Dawley); at maximum response, listed as Rac-Bambuterol): 24.4% | Maxdp/dt, Treatment Δ, % of control (Rats (Sprague Dawley); at maximum response, listed as racemic bambuterol): 24.4% | HR, Treatment Δ (Rats (Sprague Dawley); [3]): 85.8±5 Beat/min | MBP, Treatment Δ (Rats (Sprague Dawley); [3]): 4.2±0.5 Kpa | Maxdp/dt, Treatment Δ (Rats (Sprague Dawley); [3]): 65.4±9 Kpa/sec | duration of activity [1]: more than 12 hours

— patent publication EP1542672B1, “R-BAMBUTEROL, ITS PREPARATION AND THERAPEUTIC USES” (priority 2002, dated 2004)
